Test results from paper PMC8698454, “Anti-Colonization Effect of Au Surfaces with Self-Assembled Molecular Monolayers Functionalized with Antimicrobial Peptides on S. epidermidis” (Antibiotics, 2021).
≈ marks a conversion by molar mass, not a printed value. Read-outs that look alike come from different tables or passages of the source. Where a SMILES comes first, the peptide text is derived from it. [ ]: non-standard residue; d: D form. Lys(N3) = [N-]=[N+]=NCCCC[C@H](N)C(=O)O

How the values were obtained:
Gram-negative bacteria = format: cell-based, E. coli and P. aeruginosa
Procedure: (§1) The minimal inhibitory concentration (MIC) of peptides 1a, 1b, 2a, and 2b were determined by broth microdilution according to the Clinical Laboratory Standard Institute (CLSI) method […]-A9. The MICs of the peptides 1c, 1d, 2c, and 2d were determined by broth dilution according to the European Committee for Antimicrobial Susceptibility Testing (EUCAST). Final concentrations of 0.5-256 μg/mL were tested against a panel of reference bacteria-S. aureus (ATCC 9144), S. epidermidis (1457), E. coli (ATCC 25922), and P. aeruginosa (ATCC 27853). Each strain was tested in biological triplicate. The MIC values were defined as the lowest concentration of the peptides resulting in no visual growth.

Gram-positive bacteria = format: cell-based, S. aureus and S. epidermidis
Procedure: as §1

[1] = test system: Staphylococcus epidermidis 1457; format: cell-based; settings: for MIC S. epidermidis 1457: Table S3
Procedure: as §1

[2] = test system: Escherichia coli ATCC 25922; format: cell-based; settings: for MIC E. coli ATCC 25922: Table S3
Procedure: as §1

[3] = test system: Pseudomonas aeruginosa ATCC 27853; format: cell-based; settings: for MIC P. aeruginosa ATCC 27853: Table S3
Procedure: as §1

[4] = test system: Staphylococcus aureus ATCC 9144; format: cell-based; settings: for MIC S. aureus ATCC 9144: Table S3
Procedure: as §1

[5] = technical replicate 1, biological replicate BR1
[6] = technical replicate 1, biological replicate BR2
[7] = technical replicate 1, biological replicate BR3
[8] = technical replicate 2, biological replicate BR1
[9] = technical replicate 2, biological replicate BR2
[10] = technical replicate 2, biological replicate BR3
[11] = technical replicate 3, biological replicate BR1
[12] = technical replicate 3, biological replicate BR2
[13] = technical replicate 3, biological replicate BR3

## [N-]=[N+]=NCCCC[C@H](NC(=O)[C@H](Cc1ccccc1)NC(=O)[C@H](CCCNC(=N)N)NC(=O)[C@H](Cc1c[nH]c2ccccc12)NC(=O)[C@H](Cc1c[nH]c2ccccc12)NC(=O)[C@@H](N)CCCNC(=N)N)C(N)=O [1c] (H-RWWRF[Lys(N3)]-NH2)
Gram-negative bacteria
  MIC against Gram-negative bacteria: 64 µg/mL (≈ 63.8 µM)
Gram-positive bacteria
  MIC against Gram-positive bacteria: 16 to 32 µg/mL
[1]; 1457
  Antimicrobial Activity (MIC) S. epidermidis: 16 µg/mL
[1]; [5]
  MIC S. epidermidis 1457: 16 µg/mL (≈ 15.9 µM)
[1]; [6]
  MIC S. epidermidis 1457: 16 µg/mL (≈ 15.9 µM)
[1]; [7]
  MIC S. epidermidis 1457: 16 µg/mL (≈ 15.9 µM)
[1]; [8]
  MIC S. epidermidis 1457: 16 µg/mL (≈ 15.9 µM)
[1]; [9]
  MIC S. epidermidis 1457: 16 µg/mL (≈ 15.9 µM)
[1]; [10]
  MIC S. epidermidis 1457: 16 µg/mL (≈ 15.9 µM)
[1]; [11]
  MIC S. epidermidis 1457: 16 µg/mL (≈ 15.9 µM)
[1]; [12]
  MIC S. epidermidis 1457: 16 µg/mL (≈ 15.9 µM)
[1]; [13]
  MIC S. epidermidis 1457: 16 µg/mL (≈ 15.9 µM)
[2]; ATCC 25922
  Antimicrobial Activity (MIC) E. coli: 64 µg/mL
[2]; [5]
  MIC E. coli ATCC 25922: 32 µg/mL (≈ 31.9 µM)
[2]; [6]
  MIC E. coli ATCC 25922: 64 µg/mL (≈ 63.8 µM)
[2]; [7]
  MIC E. coli ATCC 25922: 32 µg/mL (≈ 31.9 µM)
[2]; [8]
  MIC E. coli ATCC 25922: 64 µg/mL (≈ 63.8 µM)
[2]; [9]
  MIC E. coli ATCC 25922: 64 µg/mL (≈ 63.8 µM)
[2]; [10]
  MIC E. coli ATCC 25922: 32 µg/mL (≈ 31.9 µM)
[2]; [11]
  MIC E. coli ATCC 25922: 64 µg/mL (≈ 63.8 µM)
[2]; [12]
  MIC E. coli ATCC 25922: 64 µg/mL (≈ 63.8 µM)
[2]; [13]
  MIC E. coli ATCC 25922: 32 µg/mL (≈ 31.9 µM)
[3]; ATCC 27853
  Antimicrobial Activity (MIC) P. aeruginosa: 64 µg/mL
[3]; [5]
  MIC P. aeruginosa ATCC 27853: 64 µg/mL (≈ 63.8 µM)
[3]; [6]
  MIC P. aeruginosa ATCC 27853: 64 µg/mL (≈ 63.8 µM)
[3]; [7]
  MIC P. aeruginosa ATCC 27853: 32 µg/mL (≈ 31.9 µM)
[3]; [8]
  MIC P. aeruginosa ATCC 27853: 64 µg/mL (≈ 63.8 µM)
[3]; [9]
  MIC P. aeruginosa ATCC 27853: 64 µg/mL (≈ 63.8 µM)
[3]; [10]
  MIC P. aeruginosa ATCC 27853: 32 µg/mL (≈ 31.9 µM)
[3]; [11]
  MIC P. aeruginosa ATCC 27853: 64 µg/mL (≈ 63.8 µM)
[3]; [12]
  MIC P. aeruginosa ATCC 27853: 64 µg/mL (≈ 63.8 µM)
[3]; [13]
  MIC P. aeruginosa ATCC 27853: 32 µg/mL (≈ 31.9 µM)
[4]; ATCC 9144
  Antimicrobial Activity (MIC) S. aureus: 32 µg/mL
[4]; [5]
  MIC S. aureus ATCC 9144: 32 µg/mL (≈ 31.9 µM)
[4]; [6]
  MIC S. aureus ATCC 9144: 32 µg/mL (≈ 31.9 µM)
[4]; [7]
  MIC S. aureus ATCC 9144: 32 µg/mL (≈ 31.9 µM)
[4]; [8]
  MIC S. aureus ATCC 9144: 32 µg/mL (≈ 31.9 µM)
[4]; [9]
  MIC S. aureus ATCC 9144: 32 µg/mL (≈ 31.9 µM)
[4]; [10]
  MIC S. aureus ATCC 9144: 32 µg/mL (≈ 31.9 µM)
[4]; [11]
  MIC S. aureus ATCC 9144: 32 µg/mL (≈ 31.9 µM)
[4]; [12]
  MIC S. aureus ATCC 9144: 32 µg/mL (≈ 31.9 µM)
[4]; [13]
  MIC S. aureus ATCC 9144: 32 µg/mL (≈ 31.9 µM)
